In US12528811B2, “Substituted cyclopenta[2,1-b:5,1-b’]dipyrroles as Janus kinase (JAK) inhibitors” (UNIVERSITÄT BERN, priority 2019, dated 2026):

Tests used:
Type in all cases: biochemical
[1] = target: TYK2 (Homo sapiens, UniProt P29597); assay: TYK2 enzymatic kinase inhibition assay; conditions: read-out: Kinase inhibitory activities given in IC50 (nM), TYK2
[2] = target: JAK2 (Homo sapiens, UniProt O60674); assay: JAK2 enzymatic kinase inhibition assay; conditions: read-out: Kinase inhibitory activities given in IC50 (nM), JAK2
Chain of JAK2 (O60674 whole entry): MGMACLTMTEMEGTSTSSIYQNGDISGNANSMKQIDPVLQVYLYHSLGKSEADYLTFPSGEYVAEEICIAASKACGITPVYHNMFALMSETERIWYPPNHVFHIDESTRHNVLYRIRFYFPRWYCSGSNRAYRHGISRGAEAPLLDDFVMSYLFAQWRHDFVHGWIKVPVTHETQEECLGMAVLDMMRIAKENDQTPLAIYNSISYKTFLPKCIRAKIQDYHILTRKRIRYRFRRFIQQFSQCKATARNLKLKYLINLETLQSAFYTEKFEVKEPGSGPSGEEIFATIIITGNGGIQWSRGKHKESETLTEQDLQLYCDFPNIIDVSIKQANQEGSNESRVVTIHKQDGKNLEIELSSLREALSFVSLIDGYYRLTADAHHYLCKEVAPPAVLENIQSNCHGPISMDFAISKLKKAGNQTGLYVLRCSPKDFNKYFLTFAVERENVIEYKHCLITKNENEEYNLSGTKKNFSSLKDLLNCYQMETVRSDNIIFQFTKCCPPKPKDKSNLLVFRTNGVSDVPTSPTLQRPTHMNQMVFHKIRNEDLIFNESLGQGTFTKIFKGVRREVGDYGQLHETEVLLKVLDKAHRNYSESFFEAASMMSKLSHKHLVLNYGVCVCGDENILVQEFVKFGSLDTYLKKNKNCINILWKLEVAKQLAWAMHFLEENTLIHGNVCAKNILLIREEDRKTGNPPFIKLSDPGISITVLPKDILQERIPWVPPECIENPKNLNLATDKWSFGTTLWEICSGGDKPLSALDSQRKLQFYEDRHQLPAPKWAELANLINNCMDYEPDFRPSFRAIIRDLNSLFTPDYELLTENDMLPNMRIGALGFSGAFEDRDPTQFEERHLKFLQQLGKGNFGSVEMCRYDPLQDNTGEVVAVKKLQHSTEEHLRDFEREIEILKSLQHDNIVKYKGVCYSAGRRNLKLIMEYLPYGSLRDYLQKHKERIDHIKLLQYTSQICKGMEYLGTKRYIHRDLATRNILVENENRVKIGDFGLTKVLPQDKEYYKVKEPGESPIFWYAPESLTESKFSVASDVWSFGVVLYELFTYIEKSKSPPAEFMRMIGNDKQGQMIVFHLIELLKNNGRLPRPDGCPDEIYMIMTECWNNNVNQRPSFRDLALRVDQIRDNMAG

[3] = target: JAK1 (Homo sapiens, UniProt P23458); assay: JAK1 enzymatic kinase inhibition assay; conditions: read-out: Kinase inhibitory activities given in IC50 (nM), JAK1
Chain of JAK1 (P23458 whole entry): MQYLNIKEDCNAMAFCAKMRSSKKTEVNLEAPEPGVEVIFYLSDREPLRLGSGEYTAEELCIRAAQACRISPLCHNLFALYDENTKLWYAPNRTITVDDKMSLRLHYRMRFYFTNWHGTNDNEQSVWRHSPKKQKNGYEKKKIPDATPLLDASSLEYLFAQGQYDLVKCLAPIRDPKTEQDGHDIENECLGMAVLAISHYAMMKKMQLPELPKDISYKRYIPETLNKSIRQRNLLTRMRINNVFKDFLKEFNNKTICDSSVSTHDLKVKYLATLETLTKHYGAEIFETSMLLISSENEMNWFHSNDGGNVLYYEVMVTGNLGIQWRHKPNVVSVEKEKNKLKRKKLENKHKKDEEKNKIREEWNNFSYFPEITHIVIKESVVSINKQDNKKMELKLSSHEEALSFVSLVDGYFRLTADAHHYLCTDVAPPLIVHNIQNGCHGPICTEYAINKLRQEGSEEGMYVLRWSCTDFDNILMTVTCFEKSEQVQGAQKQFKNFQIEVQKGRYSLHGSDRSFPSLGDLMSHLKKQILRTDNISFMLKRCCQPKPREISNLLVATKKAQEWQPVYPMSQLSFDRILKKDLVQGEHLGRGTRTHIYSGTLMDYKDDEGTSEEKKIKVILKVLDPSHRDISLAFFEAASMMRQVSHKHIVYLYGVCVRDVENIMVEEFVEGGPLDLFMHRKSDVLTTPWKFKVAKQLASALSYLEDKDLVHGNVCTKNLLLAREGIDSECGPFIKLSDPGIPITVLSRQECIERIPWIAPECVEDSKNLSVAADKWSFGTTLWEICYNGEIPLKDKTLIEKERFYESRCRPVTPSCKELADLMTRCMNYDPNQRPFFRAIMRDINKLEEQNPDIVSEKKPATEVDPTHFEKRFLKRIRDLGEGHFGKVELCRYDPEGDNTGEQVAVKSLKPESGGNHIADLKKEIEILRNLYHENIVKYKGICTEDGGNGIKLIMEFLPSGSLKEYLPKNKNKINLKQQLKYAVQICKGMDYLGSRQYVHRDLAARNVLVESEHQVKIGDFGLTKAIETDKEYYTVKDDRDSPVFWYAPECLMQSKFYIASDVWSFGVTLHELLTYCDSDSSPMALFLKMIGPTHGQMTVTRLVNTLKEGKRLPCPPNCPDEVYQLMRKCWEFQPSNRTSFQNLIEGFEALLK

[4] = target: T1, JAK3 (Homo sapiens, UniProt P52333); assay: JAK3 enzymatic kinase inhibition assay; conditions: read-out: Kinase inhibitory activities given in IC50 (nM), JAK3
T1 sequence (P52333 1-1124): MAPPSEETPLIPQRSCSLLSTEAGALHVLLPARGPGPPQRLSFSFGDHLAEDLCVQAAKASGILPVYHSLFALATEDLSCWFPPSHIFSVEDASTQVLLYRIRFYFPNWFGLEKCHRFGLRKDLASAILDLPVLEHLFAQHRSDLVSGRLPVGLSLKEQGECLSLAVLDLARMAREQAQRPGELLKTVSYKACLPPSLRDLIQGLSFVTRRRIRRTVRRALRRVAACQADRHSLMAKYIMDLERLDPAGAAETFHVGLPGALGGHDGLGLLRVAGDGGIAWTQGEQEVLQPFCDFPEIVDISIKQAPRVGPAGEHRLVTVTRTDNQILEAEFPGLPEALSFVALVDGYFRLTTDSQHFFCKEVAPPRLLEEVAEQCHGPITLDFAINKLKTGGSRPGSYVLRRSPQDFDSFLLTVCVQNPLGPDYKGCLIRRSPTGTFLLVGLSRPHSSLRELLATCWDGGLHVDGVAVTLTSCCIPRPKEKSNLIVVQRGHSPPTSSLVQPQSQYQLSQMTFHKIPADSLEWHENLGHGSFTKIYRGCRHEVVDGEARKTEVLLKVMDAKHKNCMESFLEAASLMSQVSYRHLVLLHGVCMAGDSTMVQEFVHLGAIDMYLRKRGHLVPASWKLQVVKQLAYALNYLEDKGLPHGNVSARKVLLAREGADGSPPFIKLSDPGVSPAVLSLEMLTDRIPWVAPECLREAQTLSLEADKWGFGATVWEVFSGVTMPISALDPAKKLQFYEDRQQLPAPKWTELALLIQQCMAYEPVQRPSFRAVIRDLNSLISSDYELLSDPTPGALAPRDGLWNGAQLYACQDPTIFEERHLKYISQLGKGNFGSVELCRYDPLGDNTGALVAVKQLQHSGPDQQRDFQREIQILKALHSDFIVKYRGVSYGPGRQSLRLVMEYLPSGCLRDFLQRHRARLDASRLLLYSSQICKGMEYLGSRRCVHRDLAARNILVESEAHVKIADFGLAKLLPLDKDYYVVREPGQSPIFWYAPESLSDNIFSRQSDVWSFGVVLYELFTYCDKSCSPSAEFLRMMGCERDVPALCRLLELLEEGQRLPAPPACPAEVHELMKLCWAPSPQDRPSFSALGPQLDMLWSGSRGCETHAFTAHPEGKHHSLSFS

Chain of TYK2 (P29597 whole entry): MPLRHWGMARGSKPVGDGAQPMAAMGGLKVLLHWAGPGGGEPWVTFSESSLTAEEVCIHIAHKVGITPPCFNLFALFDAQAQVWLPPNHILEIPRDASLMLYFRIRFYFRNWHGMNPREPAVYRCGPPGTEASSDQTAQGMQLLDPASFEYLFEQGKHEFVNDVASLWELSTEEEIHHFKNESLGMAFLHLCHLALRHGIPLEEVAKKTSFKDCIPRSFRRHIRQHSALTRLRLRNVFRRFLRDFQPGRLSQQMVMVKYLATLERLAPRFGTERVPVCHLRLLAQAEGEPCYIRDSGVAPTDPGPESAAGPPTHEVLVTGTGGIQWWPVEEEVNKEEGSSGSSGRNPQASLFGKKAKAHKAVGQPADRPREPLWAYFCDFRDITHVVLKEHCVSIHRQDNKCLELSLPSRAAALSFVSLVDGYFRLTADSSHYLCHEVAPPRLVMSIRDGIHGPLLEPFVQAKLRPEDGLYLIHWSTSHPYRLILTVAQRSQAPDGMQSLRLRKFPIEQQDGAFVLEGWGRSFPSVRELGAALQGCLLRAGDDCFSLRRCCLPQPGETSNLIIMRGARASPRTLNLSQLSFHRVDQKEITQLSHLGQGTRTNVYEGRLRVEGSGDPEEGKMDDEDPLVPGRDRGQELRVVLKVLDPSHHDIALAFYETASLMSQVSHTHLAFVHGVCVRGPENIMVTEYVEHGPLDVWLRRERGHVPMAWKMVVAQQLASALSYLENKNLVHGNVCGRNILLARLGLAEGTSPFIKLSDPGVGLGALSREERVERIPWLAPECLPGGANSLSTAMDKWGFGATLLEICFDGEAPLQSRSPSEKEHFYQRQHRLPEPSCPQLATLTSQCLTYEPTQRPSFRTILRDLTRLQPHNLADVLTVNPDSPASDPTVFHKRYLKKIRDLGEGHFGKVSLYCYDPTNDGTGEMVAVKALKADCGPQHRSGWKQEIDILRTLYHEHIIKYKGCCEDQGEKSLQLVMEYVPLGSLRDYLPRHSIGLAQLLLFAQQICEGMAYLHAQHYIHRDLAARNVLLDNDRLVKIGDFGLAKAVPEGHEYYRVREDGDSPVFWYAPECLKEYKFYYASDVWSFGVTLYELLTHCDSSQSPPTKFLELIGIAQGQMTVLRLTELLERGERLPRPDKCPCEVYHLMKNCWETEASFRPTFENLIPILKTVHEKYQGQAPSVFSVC

| IC50 [1] | IC50 [2] | IC50 [3] | IC50 [4] | Compound |
| --- | --- | --- | --- | --- |
| 26 nM | 13 nM | 1 nM | 29 nM | N#CCC(=O)N1CCC23CCN(c4ncnc5[nH]ccc45)C2CCC13 (centres unmarked) [KMC420, 3-(6-(7H-pyrrolo[2,3-d]pyrimidin-4-yl)octahydrocyclopenta[2,1-b:5,1-b′]dipyrrol-3(3aH)-yl)-3-oxopropanenitrile] |
| 183 nM | 53 nM | 30 nM | 9 nM | C=CC(=O)N1CCC23CCN(c4ncnc5[nH]ccc45)C2CCC13 (centres unmarked) [KMC423, 1-(6-(7H-pyrrolo[2,3-d]pyrimidin-4-yl)octahydrocyclopenta[2,1-b:5,1-b′]dipyrrol-3(3aH)-yl)prop-2-en-1-one] |
